Key:
[1] = Staining of topical penetration sites of the skin with gentian violet solution; set-up: species or system nude mouse
Procedure: Staining of topical penetration sites of the skin: the nude mouse skin topically pretreated by three groups, including the sonophoresis group, the 2 mg spicule group, and the group using sonophoresis and then using the spicules (the method is the same as the aforementioned method), a gentian violet solution is added into the donor compartment, stained for 24 hours, and washed by an ethanol solution, and the residue liquid on the surface is absorbed with absorbent paper, a penetration situation of a surface of the stratum corneum layer for the staining solution is observed, the stratum corneum layer and the epidermal layer of the skin are then scrapped by a blade, and a penetration situation of the dermis layer for the staining solution is observed.

[2] = system: venous thrombus; assay: Rabbit ear thrombus model, topical low-molecular-weight heparin therapy; assay type: in vivo, New Zealand rabbit; conditions: 48 hours; for state of thrombus in blood vessel (slice, FIG. 7): 300 U/kg topical
Procedure: An experimental method: • A topical injection of thrombin is used to establish an animal model of a rabbit ear thrombus: hair of an ear of the New Zealand rabbit is carefully shaven off, a blood vessel section from an external ear vein with a length of about 2 cm and having fewer branches is selected, 40 U of the thrombin is injected into the blood vessel section, and a hemostatic clip is used to block a blood flow of the blood vessel section at a proximal end of a heart. After 2 hours, the blood is completely coagulated to form a venous thrombus, and the hemostatic clip is then loosen. A length of the venous thrombus is measured and recorded, and the rabbit ear successfully modeled is sliced into a slice by the cryostat microtome. After the slice is stained by a hematoxylin and eosin (HE) tissue staining method and fixed by the resin, and the slice is mounted for observation. With respect to the various administration methods, the rabbits successfully modeled are divided into a therapy group for a proximal venous thrombus and a therapy group for a distal venous thrombus, and the rabbits are topically treated by the low-molecular-weight heparin (300 U/kg rabbit body weight) for therapy. […] A pretreatment method is the same as described with respect to in vitro.

Compound | infiltration of staining solution into the dermis layer ([1]; sonophoresis alone or spicules alone, stained 24 hours (FIGS. 6D and 6E)) | infiltration of staining solution into the dermis layer ([1]; sonophoresis and spicules, stained 24 hours, stratum corneum and epidermal layer scraped off (FIG. 6F)) | state of thrombus in blood vessel (slice, FIG. 7) ([2]; sonophoresis then spicules) | state of thrombus in blood vessel (slice, FIG. 7) ([2]; spicules alone) | thrombus dissolvability degree compared with intravenous injection (FIG. 8B) ([2]; distal venous thrombus, sonophoresis then spicules at distal end) | thrombus length variation (FIG. 8A) ([2]; proximal venous thrombus, sonophoresis then spicules)
CN(C)c1ccc(C(=C2C=CC(=[N+](C)C)C=C2)c2ccc(N(C)C)cc2)cc1 [staining solution, gentian violet] | almost no residue staining solution in the dermis layer | a large amount of the staining solution can still infiltrate into the dermis layer | – | – | – | –
dalteparin [low-molecular-weight heparin] | – | – | almost completely dissolved | not completely dissolved | no significant difference | basically dissolved

Reference: US12691175B2, “Drug transdermal delivery system” (Xiamen University, priority 2019, dated 2026)
